Laboratory results from patent US9084828B2, “Oligomer-protein tyrosine kinase inhibitor conjugates” (Nektar Therapeutics, priority 2009, dated 2015).

Columns and labels:
Assay type in all cases: biochemical
[1] = biological target: AKT2 (Homo sapiens, UniProt P31751); assay: Activity against various protein tyrosine kinases: AKT2
[2] = biological target: p38-beta2 (Homo sapiens, UniProt Q15759); assay: Activity against various protein tyrosine kinases: p38-beta2
[3] = biological target: p38a (Homo sapiens, UniProt Q16539); assay: Activity against various protein tyrosine kinases: p38a
p38a, sequence (Q16539 whole entry): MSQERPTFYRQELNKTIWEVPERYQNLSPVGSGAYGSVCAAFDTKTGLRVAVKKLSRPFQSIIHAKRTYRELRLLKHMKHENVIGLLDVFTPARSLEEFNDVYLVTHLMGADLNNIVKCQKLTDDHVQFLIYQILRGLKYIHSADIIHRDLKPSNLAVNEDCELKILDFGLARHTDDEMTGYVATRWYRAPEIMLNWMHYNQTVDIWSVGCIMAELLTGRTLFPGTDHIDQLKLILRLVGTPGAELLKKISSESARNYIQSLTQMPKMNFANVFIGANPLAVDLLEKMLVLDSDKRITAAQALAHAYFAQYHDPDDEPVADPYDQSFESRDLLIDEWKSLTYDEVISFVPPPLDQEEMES

[4] = biological target: MET (Homo sapiens, UniProt P08581); assay: Activity against various protein tyrosine kinases: MET
MET, sequence (P08581 25-1390): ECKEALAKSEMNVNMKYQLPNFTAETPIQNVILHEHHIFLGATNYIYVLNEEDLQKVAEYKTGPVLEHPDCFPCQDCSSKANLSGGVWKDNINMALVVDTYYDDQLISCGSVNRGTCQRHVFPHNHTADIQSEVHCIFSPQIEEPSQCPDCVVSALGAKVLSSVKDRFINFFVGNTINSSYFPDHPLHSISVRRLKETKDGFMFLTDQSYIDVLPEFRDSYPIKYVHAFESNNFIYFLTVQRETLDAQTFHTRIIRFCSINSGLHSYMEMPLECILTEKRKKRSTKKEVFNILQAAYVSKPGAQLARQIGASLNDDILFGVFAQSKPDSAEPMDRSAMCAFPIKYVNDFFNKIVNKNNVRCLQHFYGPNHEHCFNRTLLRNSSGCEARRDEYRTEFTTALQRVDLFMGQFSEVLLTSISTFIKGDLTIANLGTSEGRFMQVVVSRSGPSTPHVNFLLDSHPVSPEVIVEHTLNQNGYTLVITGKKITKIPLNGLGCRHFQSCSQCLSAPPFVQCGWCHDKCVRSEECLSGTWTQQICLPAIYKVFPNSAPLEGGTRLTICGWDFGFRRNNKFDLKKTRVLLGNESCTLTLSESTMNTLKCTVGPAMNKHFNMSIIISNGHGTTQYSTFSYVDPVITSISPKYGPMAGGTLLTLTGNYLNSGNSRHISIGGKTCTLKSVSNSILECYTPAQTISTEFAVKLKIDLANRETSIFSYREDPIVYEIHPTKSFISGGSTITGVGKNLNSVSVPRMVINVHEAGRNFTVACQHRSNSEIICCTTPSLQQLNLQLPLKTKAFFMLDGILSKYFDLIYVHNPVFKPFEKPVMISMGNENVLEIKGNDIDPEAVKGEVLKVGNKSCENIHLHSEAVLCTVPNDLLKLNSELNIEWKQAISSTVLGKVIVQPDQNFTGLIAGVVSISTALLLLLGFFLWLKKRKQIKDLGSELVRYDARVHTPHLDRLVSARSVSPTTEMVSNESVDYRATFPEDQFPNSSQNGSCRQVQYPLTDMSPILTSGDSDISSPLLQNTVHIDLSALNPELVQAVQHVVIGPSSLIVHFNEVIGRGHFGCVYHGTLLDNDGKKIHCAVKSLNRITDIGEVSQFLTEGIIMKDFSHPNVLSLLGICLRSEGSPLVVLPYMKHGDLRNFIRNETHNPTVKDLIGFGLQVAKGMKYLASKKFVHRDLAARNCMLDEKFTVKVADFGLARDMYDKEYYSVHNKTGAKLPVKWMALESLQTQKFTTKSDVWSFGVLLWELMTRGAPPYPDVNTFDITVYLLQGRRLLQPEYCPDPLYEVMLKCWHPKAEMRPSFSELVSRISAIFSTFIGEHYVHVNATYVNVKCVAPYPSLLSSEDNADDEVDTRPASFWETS

[5] = biological target: T1, TSSK2 (Homo sapiens, UniProt Q96PF2); assay: Activity against various protein tyrosine kinases: TSSK2
T1 sequence (Q96PF2 1-358): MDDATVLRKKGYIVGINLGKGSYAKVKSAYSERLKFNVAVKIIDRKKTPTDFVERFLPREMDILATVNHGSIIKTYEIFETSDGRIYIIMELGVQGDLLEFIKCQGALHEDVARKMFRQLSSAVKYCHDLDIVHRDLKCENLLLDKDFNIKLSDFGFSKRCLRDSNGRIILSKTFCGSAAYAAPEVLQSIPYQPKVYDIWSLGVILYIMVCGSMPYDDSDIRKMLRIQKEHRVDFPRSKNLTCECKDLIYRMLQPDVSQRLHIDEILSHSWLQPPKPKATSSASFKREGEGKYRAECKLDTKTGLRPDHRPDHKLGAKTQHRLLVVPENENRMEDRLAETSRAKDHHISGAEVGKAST

[6] = biological target: ABL(T315I) (Homo sapiens, UniProt P00519, T315I); assay: Activity against various protein tyrosine kinases: ABL(T315I)
Description: (§1) Using techniques know those of ordinary skill in the art, compounds were tested for activity against various protein tyrosine kinases.

[7] = biological target: PDGFR_beta (Homo sapiens, UniProt P09619); assay: Activity against various protein tyrosine kinases: PDGFR_beta
[8] = biological target: MAPKAPK3 (Homo sapiens, UniProt Q16644); assay: Activity against various protein tyrosine kinases: MAPKAPK3
MAPKAPK3, sequence (Q16644 whole entry, species assumed): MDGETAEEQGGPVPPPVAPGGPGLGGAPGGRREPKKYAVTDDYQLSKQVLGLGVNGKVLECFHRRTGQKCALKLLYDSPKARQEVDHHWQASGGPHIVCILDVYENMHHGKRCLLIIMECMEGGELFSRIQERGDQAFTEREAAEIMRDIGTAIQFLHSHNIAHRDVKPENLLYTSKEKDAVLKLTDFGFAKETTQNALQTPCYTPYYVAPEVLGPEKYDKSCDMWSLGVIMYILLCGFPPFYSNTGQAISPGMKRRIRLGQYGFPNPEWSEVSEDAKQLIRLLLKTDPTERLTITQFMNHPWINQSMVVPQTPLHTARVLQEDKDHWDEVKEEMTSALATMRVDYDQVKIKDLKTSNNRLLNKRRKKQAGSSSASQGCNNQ

[9] = biological target: T2, p38-delta (Homo sapiens, UniProt O15264); assay: Activity against various protein tyrosine kinases: p38-delta
T2 sequence (O15264 1-365): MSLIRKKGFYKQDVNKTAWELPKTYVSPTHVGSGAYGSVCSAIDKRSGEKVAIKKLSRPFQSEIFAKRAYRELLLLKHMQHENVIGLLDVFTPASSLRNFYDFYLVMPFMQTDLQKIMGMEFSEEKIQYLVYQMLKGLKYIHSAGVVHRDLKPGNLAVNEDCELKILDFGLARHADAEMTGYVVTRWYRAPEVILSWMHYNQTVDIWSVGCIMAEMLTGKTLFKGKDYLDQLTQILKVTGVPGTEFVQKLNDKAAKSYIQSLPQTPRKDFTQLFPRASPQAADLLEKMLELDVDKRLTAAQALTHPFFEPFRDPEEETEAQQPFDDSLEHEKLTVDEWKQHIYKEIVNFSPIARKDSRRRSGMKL

[10] = biological target: SRC (Homo sapiens, UniProt P12931); assay: Activity against various protein tyrosine kinases: SRC
[11] = biological target: T3, PRAK (Homo sapiens, UniProt Q8IW41); assay: Activity against various protein tyrosine kinases: PRAK
T3 sequence (Q8IW41 1-473): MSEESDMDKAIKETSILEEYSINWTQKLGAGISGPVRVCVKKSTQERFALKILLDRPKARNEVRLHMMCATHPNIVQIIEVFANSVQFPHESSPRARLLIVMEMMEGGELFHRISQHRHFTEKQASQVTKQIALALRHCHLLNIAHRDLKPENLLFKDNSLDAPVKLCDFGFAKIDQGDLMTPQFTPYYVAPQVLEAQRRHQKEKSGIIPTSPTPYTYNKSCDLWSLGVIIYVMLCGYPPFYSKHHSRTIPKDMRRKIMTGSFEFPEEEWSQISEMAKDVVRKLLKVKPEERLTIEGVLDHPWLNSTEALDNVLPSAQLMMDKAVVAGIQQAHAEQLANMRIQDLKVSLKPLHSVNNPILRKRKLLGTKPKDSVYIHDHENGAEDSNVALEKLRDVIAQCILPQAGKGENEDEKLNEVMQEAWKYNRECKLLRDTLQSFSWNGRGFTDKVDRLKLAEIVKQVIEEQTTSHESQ

[12] = biological target: CKIT (Homo sapiens, UniProt P10721); assay: Activity against various protein tyrosine kinases: CKIT
CKIT, sequence (P10721 26-976): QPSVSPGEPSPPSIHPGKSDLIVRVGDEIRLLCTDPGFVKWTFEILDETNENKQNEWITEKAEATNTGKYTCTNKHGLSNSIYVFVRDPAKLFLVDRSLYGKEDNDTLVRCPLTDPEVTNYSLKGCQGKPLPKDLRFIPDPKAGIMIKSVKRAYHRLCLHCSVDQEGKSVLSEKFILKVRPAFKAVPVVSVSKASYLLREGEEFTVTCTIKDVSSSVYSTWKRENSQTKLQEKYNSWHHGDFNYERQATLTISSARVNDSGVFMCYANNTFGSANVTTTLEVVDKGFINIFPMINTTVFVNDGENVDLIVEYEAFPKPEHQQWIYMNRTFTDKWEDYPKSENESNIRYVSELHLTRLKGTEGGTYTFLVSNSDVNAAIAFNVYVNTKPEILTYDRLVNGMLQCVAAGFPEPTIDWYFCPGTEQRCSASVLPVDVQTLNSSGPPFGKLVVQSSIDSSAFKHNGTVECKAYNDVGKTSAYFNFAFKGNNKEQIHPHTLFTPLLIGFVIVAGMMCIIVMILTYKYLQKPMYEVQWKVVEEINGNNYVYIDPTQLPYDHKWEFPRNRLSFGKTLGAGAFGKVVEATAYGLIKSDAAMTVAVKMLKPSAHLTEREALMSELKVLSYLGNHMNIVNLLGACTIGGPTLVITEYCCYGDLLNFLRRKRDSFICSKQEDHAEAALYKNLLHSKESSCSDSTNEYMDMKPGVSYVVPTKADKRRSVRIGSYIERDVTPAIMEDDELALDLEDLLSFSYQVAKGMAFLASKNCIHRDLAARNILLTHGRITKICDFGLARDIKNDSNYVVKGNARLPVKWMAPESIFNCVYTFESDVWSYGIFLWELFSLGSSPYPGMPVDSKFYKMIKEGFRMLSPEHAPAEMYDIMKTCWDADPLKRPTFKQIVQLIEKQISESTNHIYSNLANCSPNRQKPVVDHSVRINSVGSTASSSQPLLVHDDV

[13] = biological target: T4, CHK1 (Homo sapiens, UniProt O14757); assay: Activity against various protein tyrosine kinases: CHK1
T4 sequence (O14757 1-476): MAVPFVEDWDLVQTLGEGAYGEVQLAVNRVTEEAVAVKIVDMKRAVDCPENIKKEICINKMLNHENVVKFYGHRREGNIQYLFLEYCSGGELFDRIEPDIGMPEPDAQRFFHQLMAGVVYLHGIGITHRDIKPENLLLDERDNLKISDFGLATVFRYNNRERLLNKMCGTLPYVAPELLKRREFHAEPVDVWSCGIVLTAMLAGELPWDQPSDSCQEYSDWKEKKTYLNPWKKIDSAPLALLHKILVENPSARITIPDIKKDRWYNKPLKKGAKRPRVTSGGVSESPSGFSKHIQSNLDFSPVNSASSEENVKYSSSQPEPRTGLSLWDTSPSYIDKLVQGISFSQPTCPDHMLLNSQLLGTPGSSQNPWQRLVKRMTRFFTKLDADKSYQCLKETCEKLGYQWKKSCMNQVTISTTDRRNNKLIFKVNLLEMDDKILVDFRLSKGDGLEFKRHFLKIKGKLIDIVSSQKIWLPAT

[14] = biological target: FGFR3 (Homo sapiens, UniProt P22607); assay: Activity against various protein tyrosine kinases: FGFR3
[15] = biological target: ABL (Homo sapiens, UniProt P00519); assay: Activity against various protein tyrosine kinases: ABL; parameters: purchased MILLIPORE 14-529
Description: as §1

[16] = biological target: LCK (Homo sapiens, UniProt P06239); assay: Activity against various protein tyrosine kinases: LCK
LCK, sequence (P06239 whole entry, species assumed): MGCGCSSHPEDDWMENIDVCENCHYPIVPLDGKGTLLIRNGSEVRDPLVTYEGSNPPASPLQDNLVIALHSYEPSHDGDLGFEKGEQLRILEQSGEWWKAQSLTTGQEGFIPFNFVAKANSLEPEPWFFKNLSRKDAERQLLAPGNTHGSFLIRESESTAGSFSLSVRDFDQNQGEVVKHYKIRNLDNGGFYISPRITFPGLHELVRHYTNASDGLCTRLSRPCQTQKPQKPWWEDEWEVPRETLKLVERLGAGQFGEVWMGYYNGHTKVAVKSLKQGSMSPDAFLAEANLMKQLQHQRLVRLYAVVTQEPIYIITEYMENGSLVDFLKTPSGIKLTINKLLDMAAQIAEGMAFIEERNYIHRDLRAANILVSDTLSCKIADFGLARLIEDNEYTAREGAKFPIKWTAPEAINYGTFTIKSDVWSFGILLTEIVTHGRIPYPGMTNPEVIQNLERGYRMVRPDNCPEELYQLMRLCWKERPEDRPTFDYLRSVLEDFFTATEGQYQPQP

[17] = biological target: GSK3b (Homo sapiens, UniProt P49841); assay: Activity against various protein tyrosine kinases: GSK3b
GSK3b, sequence (P49841 whole entry, species assumed): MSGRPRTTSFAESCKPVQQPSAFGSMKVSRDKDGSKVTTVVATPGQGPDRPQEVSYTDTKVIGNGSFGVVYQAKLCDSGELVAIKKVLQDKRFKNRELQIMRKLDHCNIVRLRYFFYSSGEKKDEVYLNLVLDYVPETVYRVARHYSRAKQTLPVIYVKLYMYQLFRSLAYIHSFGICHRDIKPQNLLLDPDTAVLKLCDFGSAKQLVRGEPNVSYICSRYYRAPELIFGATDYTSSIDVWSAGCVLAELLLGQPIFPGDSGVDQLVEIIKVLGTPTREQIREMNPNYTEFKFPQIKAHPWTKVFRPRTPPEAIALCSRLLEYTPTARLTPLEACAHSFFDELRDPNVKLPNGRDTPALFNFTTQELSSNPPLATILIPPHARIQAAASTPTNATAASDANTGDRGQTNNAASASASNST

p38-beta2, sequence (Q15759 whole entry): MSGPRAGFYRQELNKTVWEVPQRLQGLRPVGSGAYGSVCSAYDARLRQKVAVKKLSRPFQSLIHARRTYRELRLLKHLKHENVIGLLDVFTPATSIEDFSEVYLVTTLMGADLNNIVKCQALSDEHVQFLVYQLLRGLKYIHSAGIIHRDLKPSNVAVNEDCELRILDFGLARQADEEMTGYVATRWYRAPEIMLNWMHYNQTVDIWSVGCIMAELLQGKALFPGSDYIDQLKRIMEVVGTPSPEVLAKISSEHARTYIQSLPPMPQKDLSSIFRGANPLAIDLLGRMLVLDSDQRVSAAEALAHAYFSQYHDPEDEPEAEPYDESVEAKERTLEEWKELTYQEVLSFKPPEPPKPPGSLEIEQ
AKT2, sequence (P31751 whole entry, species assumed): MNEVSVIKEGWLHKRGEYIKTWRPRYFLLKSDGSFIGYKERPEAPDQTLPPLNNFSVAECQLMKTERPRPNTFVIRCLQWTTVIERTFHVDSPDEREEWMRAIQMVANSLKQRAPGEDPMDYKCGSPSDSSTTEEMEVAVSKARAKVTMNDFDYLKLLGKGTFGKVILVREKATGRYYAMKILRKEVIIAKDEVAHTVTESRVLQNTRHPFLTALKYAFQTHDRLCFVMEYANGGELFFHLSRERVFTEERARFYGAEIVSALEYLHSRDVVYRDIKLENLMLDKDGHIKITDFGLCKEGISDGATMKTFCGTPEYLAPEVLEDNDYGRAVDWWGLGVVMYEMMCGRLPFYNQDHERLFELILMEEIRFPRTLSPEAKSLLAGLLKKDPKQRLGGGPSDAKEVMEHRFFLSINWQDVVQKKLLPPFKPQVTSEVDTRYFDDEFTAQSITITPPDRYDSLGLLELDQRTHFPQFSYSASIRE

COCCOCCOCCOCCOCCOCCOCCNC(=O)OCCN1CCN(c2cc(Nc3ncc(C(=O)Nc4c(C)cccc4Cl)s3)nc(C)n2)CC1 [mPEG7-NHCOO-Dasatinib]
% Inhibition at 10 nM [1]: 3%
% Inhibition at 1 μM [1]: 3%
% Inhibition at 10 nM [2]: 0%
% Inhibition at 1 μM [2]: 35%
% Inhibition at 10 nM [3]: 5%
% Inhibition at 1 μM [3]: 74%
% Inhibition at 10 nM [4]: 1%
% Inhibition at 1 μM [4]: 1%
% Inhibition at 10 nM [5]: 3%
% Inhibition at 1 μM [5]: −2%
% Inhibition at 10 nM [6]: 4%
% Inhibition at 1 μM [6]: 26%
% Inhibition at 10 nM [7]: 60%
% Inhibition at 1 μM [7]: 100%
% Inhibition at 10 nM [8]: 1%
% Inhibition at 1 μM [8]: 0%
% Inhibition at 10 nM [9]: 0%
% Inhibition at 1 μM [9]: 0%
% Inhibition at 10 nM [10]: 98%
% Inhibition at 1 μM [10]: 98%
% Inhibition at 10 nM [11]: 8%
% Inhibition at 1 μM [11]: 0%
% Inhibition at 10 nM [12]: 34%
% Inhibition at 1 μM [12]: 100%
% Inhibition at 10 nM [13]: 10%
% Inhibition at 1 μM [13]: 8%
% Inhibition at 10 nM [14]: 2%
% Inhibition at 1 μM [14]: 10%
% Inhibition at 10 nM [15]: 99%
% Inhibition at 1 μM [15]: 99%
% Inhibition at 10 nM [16]: 98%
% Inhibition at 1 μM [16]: 98%
% Inhibition at 10 nM [17]: 3%
% Inhibition at 1 μM [17]: 2%

COCCOCCOCCNC(=O)OCCN1CCN(c2cc(Nc3ncc(C(=O)Nc4c(C)cccc4Cl)s3)nc(C)n2)CC1 [mPEG3-NHCOO-Dasatinib]
% Inhibition at 10 nM [1]: 9%
% Inhibition at 1 μM [1]: 7%
% Inhibition at 10 nM [2]: 3%
% Inhibition at 1 μM [2]: 48%
% Inhibition at 10 nM [3]: 6%
% Inhibition at 1 μM [3]: 81%
% Inhibition at 10 nM [4]: 3%
% Inhibition at 1 μM [4]: 0%
% Inhibition at 10 nM [5]: −1%
% Inhibition at 1 μM [5]: 0%
% Inhibition at 10 nM [6]: 1%
% Inhibition at 1 μM [6]: 36%
% Inhibition at 10 nM [7]: 48%
% Inhibition at 1 μM [7]: 99%
% Inhibition at 10 nM [8]: 5%
% Inhibition at 1 μM [8]: 3%
% Inhibition at 10 nM [9]: 0%
% Inhibition at 1 μM [9]: 2%
% Inhibition at 10 nM [10]: 99%
% Inhibition at 1 μM [10]: 99%
% Inhibition at 10 nM [11]: 6%
% Inhibition at 1 μM [11]: 4%
% Inhibition at 10 nM [12]: 34%
% Inhibition at 1 μM [12]: 100%
% Inhibition at 10 nM [13]: −2%
% Inhibition at 1 μM [13]: 0%
% Inhibition at 10 nM [14]: 3%
% Inhibition at 1 μM [14]: 11%
% Inhibition at 10 nM [15]: 99%
% Inhibition at 1 μM [15]: 99%
% Inhibition at 10 nM [16]: 97%
% Inhibition at 1 μM [16]: 98%
% Inhibition at 10 nM [17]: 4%
% Inhibition at 1 μM [17]: 1%
